In patent US20040009967A1, “Pyridyl alkene- and pyridyl alkine- acid amides as cytostatics and immuno-suppressives” (Klinge Pharma GmbH, priority 1996, published 2004):
Where two headings read alike, the source gives them in different places.

Assays:
HepG2 cells = test: Growth inhibition of HepG2 cells, six days of incubation, sulforhodamin-B-method; format: cell-based, human; conditions: six days of substance incubation, read-out: IC50-value (concentration in which the cell growth was inhibited by 50%)
Procedure: HepG2 cells plated at a density of 20,000 cells/ml in 12-well plastic dishes. Cultivation occured in Richters IMEM-ZO nutrient medium with 5% fetal calf serum (FCS) in a tissue culture incubator with a gas mixture of 5% CO2 and 95% air at a temperature of 37° C. One day after plating, the culture medium was aspirated from the cells and replaced by fresh medium which contained the respective concentrations of the test substances. For the individual concentrations and the controls without test substances, three-fold batches were done for each. Three days after the beginning of treatment, the medium was again renewed with the test compounds. After six days of substance incubation, the test was ended and the protein amount in the individual wells was determined with the sulforhodamin-B-method (according to P. Skehan et al.: New Colorimetric Cytotoxity Assay for Anticancer-Drug Screening. J. Natl. Cancer Inst. 82: 1107-1112, 1990). The IC50-values (defined as that concentration in which the cell growth was inhibited by 50%) was taken from the dose-response curves and given as a comparative measurement for the activity of the test compounds.

[1] = system: lymphocytes from the spleen of a Swiss mouse; test: Immunosuppressing activity: vitality of freshly isolated spleen lymphocytes, flow-through cytometer; format: cell-based; conditions: 2 days incubation, read-out: IC50 (percentage amount of vital cells)
Description: Many anti-tumor agents have not only a cytotoxic effect on tumor cells, but also on the blood cell system. This leads to a weakening of the immune defence, which can, in turn, be specifically employed to suppress the rejection reaction after an organ transplantation for example. Therefore, a use of the main compounds, optionally in combination with other compounds effective for these indications is suitable in diseases such as psoriasis or autoimmune diseases. In order to test the possibility for a therapeutic use in illnesses of this type, the substance activity was tested on freshly isolated lymphocytes as follows:
The spleen of a Swiss mouse served as a lymphocyte source. The lymphocyte population was isolated from the spleen cell suspension over a ficoll gradient and taken up in IMEM-ZO culture medium with 0,1% dextran 70,000 and 2% fetal calf serum. The cells were plated at a density of ca. 500,000 cells/well/ml in a 12-well plate, 1 ml doubly concentrated test substance solution was pipetted per well and this was subsequently incubated in a tissue culture incubator at 37° C. and 5% CO2. After 2 days, a 1 ml-aliquot with 5 μl of the fluorescent dye solutions propidium iodide (8 mg/ml) and 3,3′-dihexyloxacarbocyanin iodide (40 μg/ml) each was added per well, and incubated for 3 minutes at room temperature. Subsequently, 10,000 cells per each sample were measured on a flow-through cytometer and the percentage amount of vital cells in the population was determined. By means of the dose-response curves, IC50-values were calculated which were also employed in the following Tables for the characterization of the individual substances: […]

SMILES	melting point	IC50 (HepG2 cells; Homo sapiens, 144 h)	IC50 ([1]; Lymphocyte, 48 h)	also measured
O=C(C=Cc1cccnc1)NCCCCC1CCN(C2c3ccccc3CSc3ccccc32)CC1 (stereo not drawn) [Substance 136, N-{4-[1-(6,11-dihydro-dibenzo[b,e]thiepin-11-yl)-piperidin-4-yl]-butyl}-3-(pyridin-3-yl)-acrylamide]	89 to 91 °C	2 nM	–	–
O=C(C=Cc1cccnc1)NCCCCC1CCN(C(=O)C(c2ccccc2)c2ccccc2)CC1 [Substance 150, N-[4-(1-diphenylacetyl-piperidin-4-yl)-butyl]-3-(pyridin-3-yl)-acrylamide]	161 °C	–	0.2 nM	–
O=C(C=Cc1cccnc1)NCCCCC1CCN(C(=O)c2ccccc2)CC1 [Substance 159, N[4-(1-benzoylpiperidin-4-yl)-butyl]-3-(pyridin-3-yl)-acrylamide]	–	–	–	IC50 (HepG2 cells): 0.5 nM; IC50 [1]: 3 nM
O=C(C=Cc1cccnc1)NCCCCC1CCN(C(=O)c2cccc3c2-c2ccccc2C3=O)CC1 [Substance 178, N-{4-[1-(9-oxo-9H-fluoren-4-yl-carbonyl)-piperidin-4-yl]-butyl}-3-(pyridin-3-yl)-acrylamide]	–	0.7 nM	–	–
O=C(C=Cc1cccnc1)NCCCCC1CCN(C(=O)Nc2cccc3ccccc23)CC1 [Substance 195, N-{4-[1-(1-naphthylaminocarbonyl)-piperidin-4-yl]-butyl}-3-(pyridin-3-yl)-acrylamide]	198 to 200 °C	–	2 nM	–
O=C(C=Cc1cccnc1)NCCCCC1CCN(C(=O)N(c2ccccc2)c2ccccc2)CC1 [Substance 199, N-{4-[1-(diphenylaminocarbonyl)-piperidin-4-yl]-butyl}-3-(pyridin-3-yl)-acrylamide]	–	1 nM	0.04 nM	–
O=C(C=Cc1cccnc1)NCCCCC1CCN(S(=O)(=O)c2ccc3ccccc3c2)CC1 [Substance 219, N-{4-[1-(2-naphthyl-sulfonyl)-piperidin-4-yl]-butyl}-3-(pyridin-3-yl)-acrylamide]	85 to 87 °C	–	–	–
